Results reported in ChEMBL document CHEMBL3739291, “3-AminooxazolidinoneAHL analogs as hydrolytically-stable quorum sensingagonists in Gram-negative bacteria” (Medchemcomm, 2015).
Active and inactive are the calls of the source. The rule behind the calls is not given here.

How the values were obtained:
[1] = Agonist activity at Escherichia coli JM109 LasR assessed as induction of bioluminescence after 8 hrs by luminometric analysis
[2] = molecular target: T1, CviR transcriptional regulator (Chromobacterium violaceum) (UniProt D3W065); test: Antagonist activity at Chromobacterium violaceum CV026 CviR assessed as inhibition of C4-HSL-induced violacein production at 2 uM preincubated at 32 degC for day 1 followed by further incubation at 25 degC on day 2 by agar plate assay
T1 sequence (whole entry): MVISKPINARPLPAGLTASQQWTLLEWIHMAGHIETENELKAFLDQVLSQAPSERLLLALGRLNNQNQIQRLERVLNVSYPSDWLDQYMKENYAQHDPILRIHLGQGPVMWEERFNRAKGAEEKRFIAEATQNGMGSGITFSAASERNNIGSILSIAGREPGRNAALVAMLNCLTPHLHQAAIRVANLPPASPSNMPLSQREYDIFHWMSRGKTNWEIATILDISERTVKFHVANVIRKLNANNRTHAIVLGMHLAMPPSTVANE

[3] = Stability in 180 mM Tris-HCl buffer at pH 8 measured for 3 hrs by HPLC analysis; format: physicochemical; conditions: pH 8, 3 h
[4] = molecular target: T1, CviR transcriptional regulator (Chromobacterium violaceum); test: Antagonist activity at Chromobacterium violaceum CV026 CviR assessed as inhibition of C4-HSL-induced violacein production preincubated at 32 degC for day 1 followed by further incubation at 25 degC on day 2 by agar plate assay
[5] = molecular target: T1, CviR transcriptional regulator (Chromobacterium violaceum); test: Agonist activity at Chromobacterium violaceum CV026 CviR assessed as production of violacein at 20 uM preincubated at 32 degC for day 1 followed by further incubation at 25 degC on day 2 by agar plate assay

**Q.** Which results are given for `CCCCCCCCCC(=O)CC(=O)N[C@H]1CCOC1=O`?
**A.** EC50 [1]: 1.5 nM; inhibition [2]: Active; Stability [3]: Stable

**Q.** Which results are given for `CCCCCCCCCC(=O)CC(=O)NN1CCOC1=O`?
**A.** EC50 [1]: 2.1 nM; inhibition [4]: Active; Stability [3]: Stable

**Q.** Which Activity [5] does the source give for `CCCC(=O)N[C@H]1CCOC1=O` here?
**A.** The Activity was “Active”.

**Q.** Which Activity [5] does the source give for `CCCC(=O)NN1CCOC1=O` here?
**A.** The Activity was “Active”.
